Results from the Kinase Knowledgebase extract (Sharma et al. 2016).

Experiments:
PIK3CA (human) = PIK3CA (human) (UniProt P42336); experiment: Inhibition of PIK3CA Kinase Activity
PIK3CB (Human) = PIK3CB (Human) (UniProt P42338); experiment: Inhibition of PIK3CB Kinase Activity
PIK3CG (human) = PIK3CG (human) (UniProt P48736); experiment: Inhibition of PIK3CG Kinase Activity
PIK3CD (Human) = PIK3CD (Human) (UniProt O00329); experiment: Inhibition of PIK3CD Kinase Activity

Measured: IC50

PIK3CD (Human), sequence (O00329 whole entry, looked up): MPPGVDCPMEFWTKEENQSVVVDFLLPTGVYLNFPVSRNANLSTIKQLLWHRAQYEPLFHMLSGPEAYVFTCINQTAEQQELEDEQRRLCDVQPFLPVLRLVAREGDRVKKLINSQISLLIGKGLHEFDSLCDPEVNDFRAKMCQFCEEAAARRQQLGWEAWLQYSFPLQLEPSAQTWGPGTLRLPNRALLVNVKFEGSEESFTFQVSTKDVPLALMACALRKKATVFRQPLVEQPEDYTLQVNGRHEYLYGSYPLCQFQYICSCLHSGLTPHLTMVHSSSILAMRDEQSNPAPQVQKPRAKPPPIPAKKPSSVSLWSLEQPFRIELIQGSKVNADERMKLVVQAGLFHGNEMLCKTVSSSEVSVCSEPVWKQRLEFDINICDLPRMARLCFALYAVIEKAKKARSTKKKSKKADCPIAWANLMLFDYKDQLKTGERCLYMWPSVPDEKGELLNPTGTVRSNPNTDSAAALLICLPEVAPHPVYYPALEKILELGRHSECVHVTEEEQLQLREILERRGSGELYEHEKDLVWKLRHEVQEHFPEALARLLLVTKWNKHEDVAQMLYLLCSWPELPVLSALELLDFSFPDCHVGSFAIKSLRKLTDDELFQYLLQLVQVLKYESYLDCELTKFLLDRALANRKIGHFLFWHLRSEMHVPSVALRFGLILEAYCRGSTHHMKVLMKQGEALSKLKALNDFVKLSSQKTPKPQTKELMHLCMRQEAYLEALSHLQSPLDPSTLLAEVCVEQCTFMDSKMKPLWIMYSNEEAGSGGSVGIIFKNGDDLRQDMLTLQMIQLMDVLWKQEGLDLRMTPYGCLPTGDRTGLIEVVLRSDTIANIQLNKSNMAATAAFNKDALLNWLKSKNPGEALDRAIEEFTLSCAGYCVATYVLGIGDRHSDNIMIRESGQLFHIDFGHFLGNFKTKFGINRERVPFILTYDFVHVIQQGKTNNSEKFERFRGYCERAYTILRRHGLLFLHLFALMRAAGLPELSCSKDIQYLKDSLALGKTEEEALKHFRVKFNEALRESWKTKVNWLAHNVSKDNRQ
PIK3CB (Human), sequence (P42338 whole entry, looked up): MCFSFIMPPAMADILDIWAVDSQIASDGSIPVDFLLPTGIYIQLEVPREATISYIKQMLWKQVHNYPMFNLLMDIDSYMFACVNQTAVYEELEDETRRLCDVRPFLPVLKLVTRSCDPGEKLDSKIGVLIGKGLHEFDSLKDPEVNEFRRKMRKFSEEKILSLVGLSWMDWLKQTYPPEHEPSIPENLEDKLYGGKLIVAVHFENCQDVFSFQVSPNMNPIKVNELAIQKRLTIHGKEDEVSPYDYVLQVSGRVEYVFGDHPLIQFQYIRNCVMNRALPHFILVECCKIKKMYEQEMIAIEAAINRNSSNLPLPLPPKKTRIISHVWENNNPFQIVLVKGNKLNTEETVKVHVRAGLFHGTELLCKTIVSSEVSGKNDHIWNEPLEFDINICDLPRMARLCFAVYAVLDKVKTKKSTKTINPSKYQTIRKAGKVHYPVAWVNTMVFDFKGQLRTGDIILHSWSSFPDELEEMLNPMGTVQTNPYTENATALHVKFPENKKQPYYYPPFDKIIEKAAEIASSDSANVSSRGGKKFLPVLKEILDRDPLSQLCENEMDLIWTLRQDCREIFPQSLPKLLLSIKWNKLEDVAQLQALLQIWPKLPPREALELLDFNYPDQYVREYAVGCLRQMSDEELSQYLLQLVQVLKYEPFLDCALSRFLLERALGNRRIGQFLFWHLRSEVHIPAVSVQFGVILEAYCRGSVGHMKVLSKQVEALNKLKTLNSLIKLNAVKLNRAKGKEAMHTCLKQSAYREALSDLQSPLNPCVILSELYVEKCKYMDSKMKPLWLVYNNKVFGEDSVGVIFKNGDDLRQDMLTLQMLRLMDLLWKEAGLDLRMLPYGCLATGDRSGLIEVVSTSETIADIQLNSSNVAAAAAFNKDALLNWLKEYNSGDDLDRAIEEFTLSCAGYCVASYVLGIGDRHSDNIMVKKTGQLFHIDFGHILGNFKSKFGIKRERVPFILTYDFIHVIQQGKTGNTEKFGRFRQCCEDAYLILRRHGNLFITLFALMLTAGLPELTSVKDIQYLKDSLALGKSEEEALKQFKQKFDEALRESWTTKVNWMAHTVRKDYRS
PIK3CA (human), sequence (P42336 whole entry, looked up): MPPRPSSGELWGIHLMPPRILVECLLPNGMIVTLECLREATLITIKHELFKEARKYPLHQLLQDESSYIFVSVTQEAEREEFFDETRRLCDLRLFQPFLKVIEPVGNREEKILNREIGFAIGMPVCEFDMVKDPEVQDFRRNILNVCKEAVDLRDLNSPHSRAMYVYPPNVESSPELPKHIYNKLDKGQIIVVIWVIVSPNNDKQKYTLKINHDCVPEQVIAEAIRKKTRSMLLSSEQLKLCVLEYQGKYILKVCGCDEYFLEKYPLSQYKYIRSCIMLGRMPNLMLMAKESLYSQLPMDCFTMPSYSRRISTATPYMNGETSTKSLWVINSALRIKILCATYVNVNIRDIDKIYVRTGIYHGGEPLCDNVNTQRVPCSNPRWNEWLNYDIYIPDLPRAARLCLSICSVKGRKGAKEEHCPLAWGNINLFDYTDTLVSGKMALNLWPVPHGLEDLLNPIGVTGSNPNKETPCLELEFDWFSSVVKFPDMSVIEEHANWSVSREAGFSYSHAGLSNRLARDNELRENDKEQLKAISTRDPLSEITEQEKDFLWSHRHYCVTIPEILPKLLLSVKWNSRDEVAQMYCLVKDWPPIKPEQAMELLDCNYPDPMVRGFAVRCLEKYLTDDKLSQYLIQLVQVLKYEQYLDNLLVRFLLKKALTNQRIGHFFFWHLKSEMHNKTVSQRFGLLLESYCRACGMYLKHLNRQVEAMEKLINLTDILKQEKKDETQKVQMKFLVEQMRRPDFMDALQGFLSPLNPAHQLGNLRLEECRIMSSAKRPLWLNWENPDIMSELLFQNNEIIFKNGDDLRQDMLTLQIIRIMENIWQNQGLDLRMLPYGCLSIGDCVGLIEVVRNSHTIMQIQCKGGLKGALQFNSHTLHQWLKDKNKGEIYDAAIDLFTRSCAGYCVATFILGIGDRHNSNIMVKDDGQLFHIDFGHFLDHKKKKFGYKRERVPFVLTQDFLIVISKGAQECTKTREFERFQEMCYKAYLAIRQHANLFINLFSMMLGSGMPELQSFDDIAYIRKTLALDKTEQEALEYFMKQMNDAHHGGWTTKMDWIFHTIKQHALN
PIK3CG (human), sequence (P48736 whole entry, looked up): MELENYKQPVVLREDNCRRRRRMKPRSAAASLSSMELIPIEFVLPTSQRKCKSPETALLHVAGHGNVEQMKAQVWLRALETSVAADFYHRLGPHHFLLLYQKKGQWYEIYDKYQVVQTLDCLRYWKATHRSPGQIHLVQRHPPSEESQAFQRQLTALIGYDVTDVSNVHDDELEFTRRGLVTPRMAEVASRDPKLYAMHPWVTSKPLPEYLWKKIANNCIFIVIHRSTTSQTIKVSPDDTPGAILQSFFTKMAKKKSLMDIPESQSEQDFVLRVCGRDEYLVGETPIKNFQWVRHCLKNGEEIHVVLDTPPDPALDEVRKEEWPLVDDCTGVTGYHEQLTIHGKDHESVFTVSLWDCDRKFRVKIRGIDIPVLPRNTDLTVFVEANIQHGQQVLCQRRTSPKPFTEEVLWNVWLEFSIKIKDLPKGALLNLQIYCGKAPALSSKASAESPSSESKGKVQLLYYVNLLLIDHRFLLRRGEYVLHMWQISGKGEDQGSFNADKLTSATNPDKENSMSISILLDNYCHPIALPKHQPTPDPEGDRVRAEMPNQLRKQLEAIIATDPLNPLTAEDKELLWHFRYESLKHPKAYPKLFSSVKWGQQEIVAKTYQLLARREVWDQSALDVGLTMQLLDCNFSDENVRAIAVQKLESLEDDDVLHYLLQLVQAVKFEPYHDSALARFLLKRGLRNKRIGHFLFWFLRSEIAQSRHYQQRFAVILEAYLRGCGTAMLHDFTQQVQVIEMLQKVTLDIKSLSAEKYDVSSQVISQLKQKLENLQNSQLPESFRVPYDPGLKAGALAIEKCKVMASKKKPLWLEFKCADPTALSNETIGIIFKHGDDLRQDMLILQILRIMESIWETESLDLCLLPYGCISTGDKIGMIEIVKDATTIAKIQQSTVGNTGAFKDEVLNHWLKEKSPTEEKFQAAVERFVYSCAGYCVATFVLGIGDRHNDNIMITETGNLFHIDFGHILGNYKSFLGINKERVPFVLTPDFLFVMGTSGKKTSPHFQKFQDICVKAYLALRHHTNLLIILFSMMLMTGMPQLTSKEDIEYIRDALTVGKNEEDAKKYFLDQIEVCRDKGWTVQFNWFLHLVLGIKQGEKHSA

CN1CCN(C(=O)N2CCC(n3ncc4c(-c5cnc(N)nc5)nc(N5CCOCC5)nc43)CC2)CC1
< 1000 nM: all assays above

Nc1ncc(-c2nc(N3CCOCC3)nc3c2cnn3C2CCOCC2)cn1
< 1000 nM: all assays above

CC(C)(O)Cn1ncc2c(-c3cnc(N)nc3)nc(N3CCOCC3)nc21
< 1000 nM: all assays above
